Experimental data: ChEMBL document CHEMBL5329160, “Design, synthesis, and mechanistic study of 2-piperazineone-bearing peptidomimetics as novel HIV capsid modulators” (RSC Med Chem, 2023)

Tested on: Human immunodeficiency virus 1
Test: Antiviral activity against HIV-1 IIIB infected in MT4 cells assessed as protection against virus induced cytotoxicity incubated for 5 days by MTT assay
Format: functional, organism-based
Conditions: Human immunodeficiency virus 1, IIIB, MT4, 120 h

Row | SMILES | EC50 [µM]
1 | COc1ccc(N(C)C(=O)[C@H](Cc2ccccc2)NC(=O)CN2CCN(C(=O)c3ccc(F)cc3)CC2=O)cc1 | > 77
2 | COc1ccc(N(C)C(=O)[C@H](Cc2cc(F)cc(F)c2)NC(=O)CN2CCN(C(=O)c3ccccc3)CC2=O)cc1 | 25
3 | COc1ccc(N(C)C(=O)[C@H](Cc2ccccc2)NC(=O)CN2CCN(C(=O)c3ccccc3N)CC2=O)cc1 | 23
4 | COc1ccc(N(C)C(=O)[C@H](Cc2ccccc2)NC(=O)CN2CCN(C(=O)c3ccc(Cl)cc3)CC2=O)cc1 | > 8.9
5 | COc1ccc(N(C)C(=O)[C@H](Cc2cc(F)cc(F)c2)NC(=O)CN2CCN(C(=O)c3ccc([N+](=O)[O-])cc3)CC2=O)cc1 | > 18
6 | COc1ccc(N(C)C(=O)[C@H](Cc2cc(F)cc(F)c2)NC(=O)CN2CCN(C(=O)c3cccc(F)c3)CC2=O)cc1 | 25
7 | COc1ccc(N(C)C(=O)[C@H](Cc2ccccc2)NC(=O)CN2CCN(C(=O)c3cccc(C(F)(F)F)c3)CC2=O)cc1 | > 6.7
8 | COc1ccc(N(C)C(=O)[C@H](Cc2ccccc2)NC(=O)CN2CCN(C(=O)c3ccc(N)cc3)CC2=O)cc1 | 21

Tested on: Human immunodeficiency virus 2
Test: Antiviral activity against HIV-2 ROD infected in MT4 cells assessed as protection against virus induced cytotoxicity and measured after 5 days by MTT spectrophotometric assay
Format: functional, organism-based
Conditions: Human immunodeficiency virus 2, ROD, MT4, 120 h

Row | SMILES | EC50 [µM]
9 | COc1ccc(N(C)C(=O)[C@H](Cc2ccccc2)NC(=O)CN2CCN(C(=O)c3ccc(F)cc3)CC2=O)cc1 | 11
10 | COc1ccc(N(C)C(=O)[C@H](Cc2cc(F)cc(F)c2)NC(=O)CN2CCN(C(=O)c3ccccc3)CC2=O)cc1 | 12
11 | COc1ccc(N(C)C(=O)[C@H](Cc2ccccc2)NC(=O)CN2CCN(C(=O)c3ccccc3N)CC2=O)cc1 | 5.4
12 | COc1ccc(N(C)C(=O)[C@H](Cc2ccccc2)NC(=O)CN2CCN(C(=O)c3ccc(Cl)cc3)CC2=O)cc1 | > 9
13 | COc1ccc(N(C)C(=O)[C@H](Cc2cc(F)cc(F)c2)NC(=O)CN2CCN(C(=O)c3ccc([N+](=O)[O-])cc3)CC2=O)cc1 | > 18
14 | COc1ccc(N(C)C(=O)[C@H](Cc2cc(F)cc(F)c2)NC(=O)CN2CCN(C(=O)c3cccc(F)c3)CC2=O)cc1 | 13
15 | COc1ccc(N(C)C(=O)[C@H](Cc2ccccc2)NC(=O)CN2CCN(C(=O)c3cccc(C(F)(F)F)c3)CC2=O)cc1 | > 6.7
16 | COc1ccc(N(C)C(=O)[C@H](Cc2ccccc2)NC(=O)CN2CCN(C(=O)c3ccc(N)cc3)CC2=O)cc1 | 28

Tested on: not listed separately
Test: Cytotoxicity against human MT4 cells assessed as reduction in cell viability after 5 days by MTT assay
Format: toxicity, cell-based
Conditions: time 5 day

Row | SMILES | CC50 at 120 h [µM]
17 | COc1ccc(N(C)C(=O)[C@H](Cc2ccccc2)NC(=O)CN2CCN(C(=O)c3ccc(F)cc3)CC2=O)cc1 | 77
18 | COc1ccc(N(C)C(=O)[C@H](Cc2cc(F)cc(F)c2)NC(=O)CN2CCN(C(=O)c3ccccc3)CC2=O)cc1 | 110
19 | COc1ccc(N(C)C(=O)[C@H](Cc2ccccc2)NC(=O)CN2CCN(C(=O)c3ccccc3N)CC2=O)cc1 | 160
20 | COc1ccc(N(C)C(=O)[C@H](Cc2ccccc2)NC(=O)CN2CCN(C(=O)c3ccc(Cl)cc3)CC2=O)cc1 | 9
21 | COc1ccc(N(C)C(=O)[C@H](Cc2cc(F)cc(F)c2)NC(=O)CN2CCN(C(=O)c3ccc([N+](=O)[O-])cc3)CC2=O)cc1 | 18
22 | COc1ccc(N(C)C(=O)[C@H](Cc2cc(F)cc(F)c2)NC(=O)CN2CCN(C(=O)c3cccc(F)c3)CC2=O)cc1 | 99
23 | COc1ccc(N(C)C(=O)[C@H](Cc2ccccc2)NC(=O)CN2CCN(C(=O)c3cccc(C(F)(F)F)c3)CC2=O)cc1 | 6.7
24 | COc1ccc(N(C)C(=O)[C@H](Cc2ccccc2)NC(=O)CN2CCN(C(=O)c3ccc(N)cc3)CC2=O)cc1 | > 230

Tested on: not listed separately
Test: Selectivity index, ratio of CC50 for human MT4 cells to EC50 for HIV-1 IIIB infected in human MT4 cells
Format: toxicity, cell-based
Conditions: read-out: Ratio CC50/EC50

Row | SMILES | selectivity ratio
25 | COc1ccc(N(C)C(=O)[C@H](Cc2ccccc2)NC(=O)CN2CCN(C(=O)c3ccc(F)cc3)CC2=O)cc1 | < 1
26 | COc1ccc(N(C)C(=O)[C@H](Cc2cc(F)cc(F)c2)NC(=O)CN2CCN(C(=O)c3ccccc3)CC2=O)cc1 | 4.4
27 | COc1ccc(N(C)C(=O)[C@H](Cc2ccccc2)NC(=O)CN2CCN(C(=O)c3ccccc3N)CC2=O)cc1 | 7
28 | COc1ccc(N(C)C(=O)[C@H](Cc2ccccc2)NC(=O)CN2CCN(C(=O)c3ccc(Cl)cc3)CC2=O)cc1 | < 1
29 | COc1ccc(N(C)C(=O)[C@H](Cc2cc(F)cc(F)c2)NC(=O)CN2CCN(C(=O)c3ccc([N+](=O)[O-])cc3)CC2=O)cc1 | < 1
30 | COc1ccc(N(C)C(=O)[C@H](Cc2cc(F)cc(F)c2)NC(=O)CN2CCN(C(=O)c3cccc(F)c3)CC2=O)cc1 | 4
31 | COc1ccc(N(C)C(=O)[C@H](Cc2ccccc2)NC(=O)CN2CCN(C(=O)c3cccc(C(F)(F)F)c3)CC2=O)cc1 | < 1
32 | COc1ccc(N(C)C(=O)[C@H](Cc2ccccc2)NC(=O)CN2CCN(C(=O)c3ccc(N)cc3)CC2=O)cc1 | > 11

Tested on: not listed separately
Test: Selectivity index, ratio of CC50 for human MT4 cells to EC50 for HIV-2 ROD infected in human MT4 cells
Format: toxicity, cell-based
Conditions: read-out: Ratio CC50/EC50

Row | SMILES | selectivity ratio
33 | COc1ccc(N(C)C(=O)[C@H](Cc2ccccc2)NC(=O)CN2CCN(C(=O)c3ccc(F)cc3)CC2=O)cc1 | 7
34 | COc1ccc(N(C)C(=O)[C@H](Cc2ccccc2)NC(=O)CN2CCN(C(=O)c3ccccc3N)CC2=O)cc1 | 30
35 | COc1ccc(N(C)C(=O)[C@H](Cc2ccccc2)NC(=O)CN2CCN(C(=O)c3ccc(Cl)cc3)CC2=O)cc1 | < 1
36 | COc1ccc(N(C)C(=O)[C@H](Cc2cc(F)cc(F)c2)NC(=O)CN2CCN(C(=O)c3ccc([N+](=O)[O-])cc3)CC2=O)cc1 | < 1
37 | COc1ccc(N(C)C(=O)[C@H](Cc2cc(F)cc(F)c2)NC(=O)CN2CCN(C(=O)c3cccc(F)c3)CC2=O)cc1 | 7.6
38 | COc1ccc(N(C)C(=O)[C@H](Cc2ccccc2)NC(=O)CN2CCN(C(=O)c3cccc(C(F)(F)F)c3)CC2=O)cc1 | < 1
39 | COc1ccc(N(C)C(=O)[C@H](Cc2ccccc2)NC(=O)CN2CCN(C(=O)c3ccc(N)cc3)CC2=O)cc1 | > 8.2

Tested on: not listed separately
Test: Metabolic stability in human liver assessed as intrinsic clearance at 1 uM preincubated for 10 mins followed by NADPH addition and measured after 60 mins
Conditions: read-out: CLH

Row | SMILES | CLint scaled at 1 µM [mL/min/kg]
40 | O=C(O)Cc1ccccc1Nc1c(Cl)cccc1Cl [DICLOFENAC] | 3.3
